# Test results taken from ChEMBL document CHEMBL5380860, “Design, Synthesis, and Antitumor Activity of Potent and Selective EGFR L858R/T790M Inhibitors and Identification of a Combination Therapy to Overcome Acquired Resistance in Models of Non-small-cell Lung Cancer” (J Med Chem, 2023).
# Calls of active or inactive are those of the source. The calls are words filed in the database; no cut-off is given here.
# Experiments:
# A549 [1] = assay: Inhibition of clonogenicity in human A549 cells assessed as inhibition of colony formation at 0.1 to 10 uM incubated for 14 days by crystal violet staining based analysis; format: toxicity, cell-based; details: a549, 336 h, dose 0.1-10 µM, time 14 day
# [2] = Toxicity in BALB/c mouse xenografted with human NCI-H1975 cells assessed as effect on body weight at 5 to 20 mg/kg/day, ip; format: organism-based; details: in vivo, dose 5-20 mg/kg/day
# [3] = target: Epidermal growth factor receptor (Homo sapiens, UniProt P00533, L858R); assay: Inhibition of human partial length EGFR (R669 to V1011 residues) L858R mutant expressed in bacterial expression system by KINOMEscan analysis
# Mus musculus [4] = assay: In vivo inhibition of EGFR L858R/T790M mutant in NCI-H1975 cells xenografted BALB/c mouse assessed as inhibition of EGFR phosphorylation at Tyr1068 residue in tumor at 20 mg/kg/day, ip by immunoblot analysis; format: functional, organism-based
# NCI-H1975 [5] = assay: Inhibition of clonogenicity in human NCI-H1975 cells assessed as inhibition of colony formation at 0.1 uM incubated for 14 days by crystal violet staining based analysis; format: functional, cell-based; details: time 14.0 day
# Mus musculus [6] = assay: In vivo inhibition of EGFR L858R/T790M mutant in ip dosed NCI-H1975 cells xenografted BALB/c mouse assessed as inhibition of AKT phosphorylation at Ser473 residue in tumor by immunoblot analysis; format: functional, organism-based; details: dose 5-20 mg/kg/day
# Mus musculus [7] = assay: In vivo inhibition of EGFR L858R/T790M mutant in NCI-H1975 cells xenografted BALB/c mouse assessed as inhibition of AKT phosphorylation at Ser473 residue in tumor at 20 mg/kg/day, ip by immunoblot analysis; format: functional, organism-based
# NCI-H1975 [8] = assay: Induction of apoptosis in human NCI-H1975 cells assessed as induction of caspase-3 cleavage pretreated with compound for 4 hrs followed by incubation with EGF for 10 mins by western blot analysis; format: functional, cell-based; details: dose 0.1-10 µM, time 250.0 min
# [9] = Apparent volume of distribution in Sprague-Dawley rat at 1 mg/kg, iv by LC-MS analysis; format: ADME, organism-based; details: in vivo, read-out: Vz
# A549 [10] = assay: Induction of apoptosis in human A549 cells assessed as induction of caspase-3 cleavage at 0.1 to 10 uM pretreated with compound for 4 hrs followed by incubation with EGF for 10 mins by western blot analysis; format: toxicity, cell-based; details: a549, 4.167 h, dose 0.1-10 µM, time 250 min
# [11] = target: Epidermal growth factor receptor (Homo sapiens, UniProt P00533, L858R/T790M); assay: Inhibition of human partial length EGFR (R669 to V1011 residues) L858R/T790M mutant expressed in mammalian expression system by KINOMEscan analysis
# [12] = target: T1, Tyrosine-protein kinase Tec (Homo sapiens) (UniProt P42680); assay: Inhibition of human wild type partial length TEC kinase (L341 to D620 residues) expressed in bacterial expression system assessed as residual activity at 1 uM by KINOMEscan analysis
# T1 sequence (whole entry): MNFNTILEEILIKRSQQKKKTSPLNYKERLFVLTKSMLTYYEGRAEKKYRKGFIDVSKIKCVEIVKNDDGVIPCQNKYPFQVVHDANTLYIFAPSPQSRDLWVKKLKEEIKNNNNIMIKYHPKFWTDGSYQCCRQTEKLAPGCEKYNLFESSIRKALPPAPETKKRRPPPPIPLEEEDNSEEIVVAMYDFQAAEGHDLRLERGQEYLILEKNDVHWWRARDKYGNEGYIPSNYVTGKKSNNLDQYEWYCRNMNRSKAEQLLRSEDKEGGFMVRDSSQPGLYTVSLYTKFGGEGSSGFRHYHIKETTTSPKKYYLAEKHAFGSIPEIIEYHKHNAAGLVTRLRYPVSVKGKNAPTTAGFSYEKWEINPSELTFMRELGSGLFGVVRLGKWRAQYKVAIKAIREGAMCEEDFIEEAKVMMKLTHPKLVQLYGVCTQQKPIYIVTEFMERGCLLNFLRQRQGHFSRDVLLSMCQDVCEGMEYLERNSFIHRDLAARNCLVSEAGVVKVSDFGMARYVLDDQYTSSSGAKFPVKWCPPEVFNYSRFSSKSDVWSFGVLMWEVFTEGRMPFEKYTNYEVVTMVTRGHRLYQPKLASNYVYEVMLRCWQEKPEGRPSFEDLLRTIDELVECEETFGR
# [13] = target: Epidermal growth factor receptor (Homo sapiens, UniProt P00533); assay: Inhibition of wild type EGFR in human A-431 cells assessed as inhibition of EGF-induced Akt phosphorylation at Ser473 residue at 0.1 to 10 uM pretreated with compound for 4 hrs followed by incubation with EGF for 10 mins by western blot analysis; format: toxicity, cell-based; details: a-431, 4.167 h, dose 0.1-10 µM, time 250 min
# NCI-H1975 [14] = assay: Antitumor activity against human NCI-H1975 cells xenografted in BALB/c mouse assessed as decrease in Ki-67 expression in tumor at 5 to 20 mg/kg/day, ip by immunohistochemistry; format: functional, organism-based; details: dose 5-20 mg/kg/day
# [15] = target: STE20-like serine/threonine-protein kinase (Homo sapiens, UniProt Q9H2G2); assay: Inhibition of human wild type partial length SLK (S14 to A307 residues) expressed in bacterial expression system by KINOMEscan analysis
# [16] = Toxicity in BALB/c mouse xenografted with N-(3-((6-Fluoro-2-((4-(4-methylpiperazin-1-yl)phenyl)amino)quinazolin-4-yl)amino)phenyl)acrylamide-resistant human NCI-H1975 cells assessed as changes in lung morphological changes at 20 mg/kg/day, ip in presence of ACK1 inhibitor, dasatinib by hematoxylin-eosin staining based analysis; format: organism-based; details: in vivo
# [17] = Toxicity in BALB/c mouse xenografted with human NCI-H1975 cells assessed as change in kidney morphological changes at 5 to 20 mg/kg/day, ip by hematoxylin-eosin staining based analysis; format: organism-based; details: in vivo, dose 5-20 mg/kg/day
# [18] = Selectivity ratio of IC50 for cytotoxicity against human A549 cells harboring wild type EGFR to IC50 for antiproliferative activity against human NCI-H1975 cells harboring EGFR L858R/T790M mutant; format: toxicity, cell-based; details: read-out: Ratio IC50
# NCI-H1975 [19] = assay: Antitumor activity against human NCI-H1975 cells xenografted in ip dosed BALB/c mouse assessed as decrease in tumor volume; format: functional, organism-based; details: dose 5-20 mg/kg/day
# HCC827 = assay: Induction of apoptosis in human HCC827 cells assessed as induction of PARP cleavage pretreated with compound for 4 hrs followed by incubation with EGF for 10 mins by western blot analysis; format: functional, cell-based; details: dose 0.1-10 µM, time 250.0 min
# [20] = system: Epidermal growth factor receptor (Homo sapiens), P00533 [L858R,T790M]; assay: (§1) Inhibition of EGFR L858R/T790M mutant in N-(3-((6-Fluoro-2-((4-(4-methylpiperazin-1-yl)phenyl)amino)quinazolin-4-yl)amino)phenyl)acrylamide-resistant human NCI-H1975 cells assessed as inhibition of EGF-induced AKT phosphorylation at Ser473 residue pretreated with compound and ACK1 inhibitor, AIM-100 for 4 hrs followed by incubation with EGF for 10 mins by western blot analysis; format: cell-based; details: time 250.0 min
# [21] = Toxicity in BALB/c mouse xenografted with human NCI-H1975 cells assessed as change in heart morphological changes at 5 to 20 mg/kg/day, ip by hematoxylin-eosin staining based analysis; format: organism-based; details: in vivo, dose 5-20 mg/kg/day
# [22] = system: Epidermal growth factor receptor (Homo sapiens), P00533 [L858R,T790M]; assay: as §1, with “Akt” for “AKT”, “compound” for “compound and ACK1 inhibitor, AIM-100”; format: cell-based; details: time 250.0 min
# Chain of Epidermal growth factor receptor (Homo sapiens), P00533 [L858R,T790M] (P00533 whole entry T790M/L858R, looked up): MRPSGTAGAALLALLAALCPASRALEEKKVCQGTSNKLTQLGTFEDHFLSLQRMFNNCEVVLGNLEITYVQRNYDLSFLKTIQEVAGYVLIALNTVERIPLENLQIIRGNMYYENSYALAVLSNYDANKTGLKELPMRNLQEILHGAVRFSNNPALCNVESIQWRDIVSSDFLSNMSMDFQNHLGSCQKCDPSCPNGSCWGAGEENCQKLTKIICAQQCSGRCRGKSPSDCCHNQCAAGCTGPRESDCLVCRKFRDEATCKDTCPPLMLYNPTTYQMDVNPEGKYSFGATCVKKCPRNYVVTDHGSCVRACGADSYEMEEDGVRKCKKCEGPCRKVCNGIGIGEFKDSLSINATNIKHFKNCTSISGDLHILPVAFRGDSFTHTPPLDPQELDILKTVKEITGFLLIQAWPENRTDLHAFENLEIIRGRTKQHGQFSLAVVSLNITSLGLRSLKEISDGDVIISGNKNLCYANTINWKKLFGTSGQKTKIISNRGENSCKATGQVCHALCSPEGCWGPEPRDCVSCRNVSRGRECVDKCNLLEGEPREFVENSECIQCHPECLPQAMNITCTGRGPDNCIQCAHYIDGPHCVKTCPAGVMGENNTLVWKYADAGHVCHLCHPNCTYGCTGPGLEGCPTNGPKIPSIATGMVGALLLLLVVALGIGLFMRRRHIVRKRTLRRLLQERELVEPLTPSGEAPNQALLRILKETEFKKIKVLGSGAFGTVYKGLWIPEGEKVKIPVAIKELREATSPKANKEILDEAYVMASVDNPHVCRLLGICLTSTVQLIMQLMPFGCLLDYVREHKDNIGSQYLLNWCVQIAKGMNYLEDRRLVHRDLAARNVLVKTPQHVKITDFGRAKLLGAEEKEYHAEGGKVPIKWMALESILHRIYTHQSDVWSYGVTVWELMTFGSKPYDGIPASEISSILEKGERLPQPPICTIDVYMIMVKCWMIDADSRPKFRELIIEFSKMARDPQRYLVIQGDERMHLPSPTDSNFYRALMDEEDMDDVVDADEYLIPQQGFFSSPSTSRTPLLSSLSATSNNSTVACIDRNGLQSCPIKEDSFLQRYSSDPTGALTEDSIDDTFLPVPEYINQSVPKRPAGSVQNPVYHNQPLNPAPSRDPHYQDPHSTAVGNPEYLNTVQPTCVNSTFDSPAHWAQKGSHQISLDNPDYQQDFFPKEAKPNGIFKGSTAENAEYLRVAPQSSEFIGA
# Chain of Epidermal growth factor receptor (Homo sapiens, UniProt P00533, L858R) (P00533 25-1210 L858R limits assumed): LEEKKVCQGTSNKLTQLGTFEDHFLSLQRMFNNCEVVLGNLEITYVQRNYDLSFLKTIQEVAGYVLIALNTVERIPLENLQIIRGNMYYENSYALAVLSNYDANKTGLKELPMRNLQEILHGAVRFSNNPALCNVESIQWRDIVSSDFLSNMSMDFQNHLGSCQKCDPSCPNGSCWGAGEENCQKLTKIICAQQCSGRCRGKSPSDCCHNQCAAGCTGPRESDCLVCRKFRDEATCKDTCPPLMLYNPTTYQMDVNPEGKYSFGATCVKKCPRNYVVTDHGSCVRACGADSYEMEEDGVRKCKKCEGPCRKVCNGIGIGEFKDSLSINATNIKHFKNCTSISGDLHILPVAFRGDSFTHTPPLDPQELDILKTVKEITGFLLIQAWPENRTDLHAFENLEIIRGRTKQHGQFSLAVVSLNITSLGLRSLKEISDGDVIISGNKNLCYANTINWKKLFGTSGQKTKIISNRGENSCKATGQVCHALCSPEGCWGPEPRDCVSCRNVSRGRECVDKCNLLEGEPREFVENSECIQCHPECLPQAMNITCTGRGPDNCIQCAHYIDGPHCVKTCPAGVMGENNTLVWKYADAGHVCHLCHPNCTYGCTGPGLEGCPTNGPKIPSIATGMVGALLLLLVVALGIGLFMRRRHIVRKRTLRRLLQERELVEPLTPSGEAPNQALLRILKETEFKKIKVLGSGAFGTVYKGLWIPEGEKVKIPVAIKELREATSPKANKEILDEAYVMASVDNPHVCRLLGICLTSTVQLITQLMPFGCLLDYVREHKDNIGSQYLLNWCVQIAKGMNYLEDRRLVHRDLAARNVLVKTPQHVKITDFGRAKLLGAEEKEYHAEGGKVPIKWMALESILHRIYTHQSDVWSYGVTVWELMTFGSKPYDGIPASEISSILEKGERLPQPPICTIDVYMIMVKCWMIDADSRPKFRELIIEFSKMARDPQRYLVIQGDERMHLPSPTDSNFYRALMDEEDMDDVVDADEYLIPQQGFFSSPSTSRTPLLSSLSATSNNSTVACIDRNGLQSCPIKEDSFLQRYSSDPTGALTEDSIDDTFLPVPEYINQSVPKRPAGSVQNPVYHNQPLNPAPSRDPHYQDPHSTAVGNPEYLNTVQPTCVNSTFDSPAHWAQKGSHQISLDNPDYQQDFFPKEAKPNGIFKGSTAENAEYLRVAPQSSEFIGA
# Chain of STE20-like serine/threonine-protein kinase (Q9H2G2 whole entry, the tested form may be a part): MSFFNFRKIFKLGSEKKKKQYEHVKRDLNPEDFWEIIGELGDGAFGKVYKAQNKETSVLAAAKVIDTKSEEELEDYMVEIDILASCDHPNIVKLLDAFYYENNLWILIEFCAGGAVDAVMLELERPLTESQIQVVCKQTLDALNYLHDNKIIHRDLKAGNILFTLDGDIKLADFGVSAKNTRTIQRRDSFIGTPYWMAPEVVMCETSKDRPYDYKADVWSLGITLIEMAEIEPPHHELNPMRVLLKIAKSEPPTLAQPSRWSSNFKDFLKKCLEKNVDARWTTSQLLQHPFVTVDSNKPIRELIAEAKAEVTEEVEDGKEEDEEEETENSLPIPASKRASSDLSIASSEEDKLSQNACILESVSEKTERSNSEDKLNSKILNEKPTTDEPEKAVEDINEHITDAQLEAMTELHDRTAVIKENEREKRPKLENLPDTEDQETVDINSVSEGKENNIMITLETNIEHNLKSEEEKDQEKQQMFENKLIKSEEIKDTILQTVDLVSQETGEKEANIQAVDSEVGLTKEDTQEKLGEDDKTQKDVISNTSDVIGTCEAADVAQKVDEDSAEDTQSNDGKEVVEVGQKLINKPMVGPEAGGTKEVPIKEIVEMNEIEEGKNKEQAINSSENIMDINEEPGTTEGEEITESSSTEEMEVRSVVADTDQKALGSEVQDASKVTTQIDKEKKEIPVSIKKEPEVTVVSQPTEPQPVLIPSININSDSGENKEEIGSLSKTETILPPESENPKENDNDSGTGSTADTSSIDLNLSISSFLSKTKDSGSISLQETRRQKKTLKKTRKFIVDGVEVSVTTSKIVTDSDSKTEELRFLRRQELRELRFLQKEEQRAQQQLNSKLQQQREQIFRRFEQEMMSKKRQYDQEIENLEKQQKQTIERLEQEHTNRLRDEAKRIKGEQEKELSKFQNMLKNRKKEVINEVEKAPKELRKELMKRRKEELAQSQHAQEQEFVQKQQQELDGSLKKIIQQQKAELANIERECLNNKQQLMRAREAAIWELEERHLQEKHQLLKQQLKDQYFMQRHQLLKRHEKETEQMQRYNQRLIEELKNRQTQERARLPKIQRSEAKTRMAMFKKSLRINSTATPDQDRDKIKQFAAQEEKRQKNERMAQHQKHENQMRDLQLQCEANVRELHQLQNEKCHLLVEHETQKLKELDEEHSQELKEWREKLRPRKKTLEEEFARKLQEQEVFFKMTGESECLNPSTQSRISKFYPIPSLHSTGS
# Chain of Epidermal growth factor receptor (Homo sapiens, UniProt P00533) (P00533 whole entry): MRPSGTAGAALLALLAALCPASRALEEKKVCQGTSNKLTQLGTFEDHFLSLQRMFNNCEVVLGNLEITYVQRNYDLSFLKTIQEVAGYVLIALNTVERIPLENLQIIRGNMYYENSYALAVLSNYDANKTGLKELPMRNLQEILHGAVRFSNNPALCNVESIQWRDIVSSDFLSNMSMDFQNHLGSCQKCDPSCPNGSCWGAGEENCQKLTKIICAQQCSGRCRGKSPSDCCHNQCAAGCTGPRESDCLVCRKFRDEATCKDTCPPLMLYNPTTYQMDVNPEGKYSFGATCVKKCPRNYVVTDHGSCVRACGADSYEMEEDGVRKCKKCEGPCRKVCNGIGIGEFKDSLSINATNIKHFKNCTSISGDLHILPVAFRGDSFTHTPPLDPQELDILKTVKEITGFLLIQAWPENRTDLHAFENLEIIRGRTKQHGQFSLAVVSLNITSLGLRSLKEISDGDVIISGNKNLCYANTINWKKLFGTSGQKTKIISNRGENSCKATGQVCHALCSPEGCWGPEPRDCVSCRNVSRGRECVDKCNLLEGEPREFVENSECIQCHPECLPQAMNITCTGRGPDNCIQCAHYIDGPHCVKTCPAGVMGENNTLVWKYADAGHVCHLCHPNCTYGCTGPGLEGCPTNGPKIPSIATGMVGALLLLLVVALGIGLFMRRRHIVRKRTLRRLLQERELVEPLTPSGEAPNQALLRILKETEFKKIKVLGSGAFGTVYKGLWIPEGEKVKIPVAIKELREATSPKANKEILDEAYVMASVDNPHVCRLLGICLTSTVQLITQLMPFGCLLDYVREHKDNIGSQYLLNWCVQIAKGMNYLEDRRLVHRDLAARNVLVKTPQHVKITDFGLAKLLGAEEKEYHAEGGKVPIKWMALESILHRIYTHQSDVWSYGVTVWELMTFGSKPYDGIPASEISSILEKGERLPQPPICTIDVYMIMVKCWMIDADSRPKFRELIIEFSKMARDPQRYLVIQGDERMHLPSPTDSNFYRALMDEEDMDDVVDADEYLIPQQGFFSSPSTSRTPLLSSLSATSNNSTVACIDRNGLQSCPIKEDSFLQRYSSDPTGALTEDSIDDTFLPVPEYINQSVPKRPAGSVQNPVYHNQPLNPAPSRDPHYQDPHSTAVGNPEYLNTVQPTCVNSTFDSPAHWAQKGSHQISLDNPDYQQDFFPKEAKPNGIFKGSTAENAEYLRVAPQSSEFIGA
compound,measurement,setting,value
C=CC(=O)Nc1cccc(Nc2nc(Nc3ccc(N4CCN(C)CC4)cc3)nc3ccc(F)cc23)c1,Activity,A549 [1],Non-Toxic
same,Activity,[2],Non-Toxic
same,IC50,[3],2.1 nM
same,inhibition,Mus musculus [4],Active
same,inhibition,NCI-H1975 [5],Active
same,inhibition,Mus musculus [6],Dose-Dependent Effect
same,inhibition,Mus musculus [7],Active
same,Activity,NCI-H1975 [8],Dose-Dependent Effect
same,Vd,[9],2.52 L/kg
same,Activity,A549 [10],Non-Toxic
same,IC50,[11],3.5 nM
same,Activity,[12],14%
same,inhibition (INH),[13],Not Active
same,Activity,NCI-H1975 [14],Active
same,IC50,[15],892 nM
same,Activity,[16],Non-Toxic
same,Activity,[17],Non-Toxic
same,selectivity ratio,[18],211
same,Activity,NCI-H1975 [19],Dose-Dependent Effect
same,Activity,HCC827,Dose-Dependent Effect
same,inhibition,[20],Active
same,Activity,[21],Non-Toxic
same,inhibition,[22],inactive
